From patent US12577219B2, “Macrolide brefeldin a ester derivatives and use thereof” (OCEAN UNIVERSITY OF CHINA, priority 2019, dated 2026) come the findings set out here.

Data set [1] is described as follows: physchem. The settings on record: 37 °C, thermodynamic from solid, x ± s, n = 3.
Experimental: The term “solubility” refers to the mass of solute dissolved when a solid substance reaches saturation state in 100 g solvent at a certain temperature.
Methods: Excess BFA and the compounds disclosed herein were added to 10 mL of three solvents, methanol, acetone and 5% DMSO+95% H2O, respectively, and shaken on a shaker at 37° C. at 100 r/min for 24 h. After 24 h, the samples were centrifuged at 15,000 r/min for 15 min to remove the undissolved compounds. The supernatant was filtered using a 0.45 μm membrane filter. The supernatant was appropriately diluted with methanol and contents of the compounds were determined by HPLC method to calculate the solubility.
Data set [2] relates to human liver cancer HepG2 cells. As to the kind of experiment: Cell proliferation assay (CCK-8). The data set is classed as cell-based. The settings on record: Homo sapiens, HepG2, 72 h. The text has this:
(§1) CCK-8 method: The CCK-8 method is a highly sensitive, non-radioactive colorimetric assay for the determination of the number of viable cells in cell proliferation or cytotoxicity assays. The orange formazan dye produced by the bioreduction of CCK-8 by intracellular dehydrogenase is soluble in the cell culture medium, and the amount of formazan dye produced is proportional to the number of living cells. The kit used in this method is the tetrazolium salt-WST-8 (2-(2-methoxy-4-nitrophenyl)-3-(4-nitrophenyl)-5-(2,4-disulfophenyl)-2H-tetrazolium monosodium salt) developed by Dojindo Chemical Research Institute (Dojindo), which is capable of being reduced to a water-soluble formazan dye in the presence of the electronic carrier 1-Methoxy PMS.
(§2) Human cervical cancer Hela cells, pancreatic cancer PANC-1cells, esophageal cancer Eca-109 cells, human leukemia K562 cells, human lung cancer A549 cells, human liver cancer HepG2 cells, human gastric cancer MKN-45 cells, human breast cancer MCF7 cells were cultured in DMEM medium containing 10% FBS (fetal bovine serum), 100 U/mL penicillin and 100 μg/ml streptomycin. Hepatocellular carcinoma cells Bel-7402 were cultured in RPMI-1640 medium containing 10% FBS (fetal bovine serum), 100 U/ml penicillin and 100 μg/ml streptomycin. All cells were placed in a cell culture incubator at 37° C. with 5% CO2. Cells fluid was changed every 3-5 days, and after 80% cell fusion, trypsin digestion and passaging were performed to keep the cells in good logarithmic growth phase.
(§3) All the samples to be tested were dissolved in DMSO.
(§4) Cells in logarithmic growth phase were inoculated in 96-well plates with 5000 cells/well respectively, and after 24 h of incubation, samples were added (final concentrations as shown in the table), and biplicate wells were set up for each sample. The amount of solvent of DMSO was not higher than 2%. After 72 h, 10 μL of CCK-8 solution was added to each well and incubated for 1.5˜3 h at 37° C. The OD value at 450 nm was measured on an plate reader. Inhibition rate (%)=(1−[(OD450 dosed well−OD450 blank well)/(OD450 control well−OD450 blank well)])×100%
(§5) The fitted IC50 values were calculated using the log (inhibitor) vs. response—Variable slop analysis method in GraphPad Prism software.

Data set [3] has as its system Human cervical cancer Hela cells. As to the kind of experiment: Cell proliferation assay (CCK-8). To be noted: Homo sapiens, 72 h. Format: cell-based.
Text: as §1, §2, §3, §4, §5

In data set [4] the test system is human lung cancer A549 cells. Nature of the data set: Cell proliferation assay (CCK-8). Format: cell-based. To be noted: Homo sapiens, A549, 72 h.
Text: as §1, §2, §3, §4, §5

Data set [5] relates to human gastric cancer MKN-45 cells. As to the kind of experiment: Cell proliferation assay (CCK-8). Format: cell-based. The settings on record: Homo sapiens, MKN-45, 72 h.
Text: as §1, §2, §3, §4, §5

Data set [6] relates to human leukemia K562 cells. Nature of the data set: Cell proliferation assay (CCK-8). The data set is classed as cell-based. The settings on record: Homo sapiens, K562, 72 h.
Text: as §1, §2, §3, §4, §5

Data set [7] concerns human breast cancer MCF7 cells. As to the kind of experiment: Cell proliferation assay (CCK-8). The data set is classed as cell-based. To be noted: Homo sapiens, MCF7, 72 h.
Text: as §1, §2, §3, §4, §5

The subject of data set [8] is pancreatic cancer PANC-1cells. As to the kind of experiment: Cell proliferation assay (CCK-8). The data set is classed as cell-based, human. To be noted: Homo sapiens, PANC-1, 72 h.
Text: as §1, §2, §3, §4, §5

Data set [9] deals with esophageal cancer Eca-109 cells. Nature of the data set: Cell proliferation assay (CCK-8). The data set is classed as cell-based, human. To be noted: Homo sapiens, Eca-109, 72 h.
Text: as §1, §2, §3, §4, §5

Structures are written as SMILES. In brackets after ≈: the same amount, converted by molar mass.

What is called solubility is how much of the substance goes into solution per volume. Broadly, the IC50 is the midpoint of a concentration-inhibition curve. Read a high IC50 as weaker potency in that assay. As for `C[C@H]1CCC/C=C/[C@@H]2C[C@H](OC(=O)/C=C/c3ccccc3)C[C@H]2[C@H](O)/C=C/C(=O)O1` [Compound A], the solubility at 24 h in data set [1] (aqueous with cosolvent or surfactant or cyclodextrin, 5% DMSO + 95% H2O) was found to be 220 ± 130 µg/mL; in data set [1] (organic solvent or mixture, Acetone), 9460 ± 1260 µg/mL (≈ 23 mM); in data set [1] (organic solvent or mixture, Methanol) it was 9480 ± 1010 µg/mL (≈ 23.1 mM). Besides, the IC50 in [2] was 1000 to 10000 nM; in data set [3], 1000 to 10000 nM; in data set [4], 1000 to 10000 nM; in data set [5] it was 1000 to 10000 nM; in data set [6] it was 100 to 1000 nM; in data set [7] it was 100 to 1000 nM. Further, the results for the IC50 in data set [8] and in [9] were 100 to 1000 nM and 1000 to 10000 nM, respectively.
